Results taken from US11261200B2, “Heteroaryltrifluoroborate compounds for the treatment of mycobacterial infections” (The Global Alliance for TB Drug Development, Inc., priority 2016, dated 2022).
pIC50: −log10 of the molar value. In brackets after ≈: the same amount, converted by molar mass. Where two headings read alike, the source gives them in different places.

Experiments:
Mtb H37Rv-PH-GFP = format: cell-based, Mycobacterium tuberculosis; conditions: acidic medium (pH 5.2), FIG. 1-3
M tb H37Rv [1] = assay: microbe, parasite or virus in culture; format: cell-based, Mycobacterium tuberculosis; conditions: pH 6.7
Vero cells = assay: Mammalian cell toxicity assay (CellTiter 96 Non-Radioactive Cell Proliferation Assay); format: cell-based; conditions: read-out: Vero cell IC50
[2] = tested on: MtbH37Rv pncA-knock out strain; assay: microbe, parasite or virus in culture; format: cell-based, Mycobacterium tuberculosis; conditions: for MIC: pH 5.2
M tb H37Rv [3] = assay: microbe, parasite or virus in culture; format: cell-based, Mycobacterium tuberculosis; conditions: pH 5.2
[4] = tested on: MtbH37Rv pncA-knock out strain; assay: microbe, parasite or virus in culture; format: cell-based, Mycobacterium tuberculosis; conditions: pH 6.7
Mtb = conditions: standard culture conditions; cited from earlier work
[5] = Mycobacterium tuberculosis, H37RV, read-out: MIC 6.7 WT
[6] = Chlorocebus sabaeus, Vero, 72 h
[7] = Mycobacterium tuberculosis, read-out: MIC 5.2 KO
[8] = Mycobacterium tuberculosis, H37RV, read-out: MIC 5.2 WT
[9] = Mycobacterium tuberculosis, read-out: MIC 6.7 KO
[10] = Chlorocebus sabaeus, Table 1, Vero cells, 72 hours

| SMILES | MIC (M tb H37Rv [1]; read-out: MIC6.7WT) [µM] | pIC50 (Vero cells; Table 1, Vero cells, 72 hours) | MIC ([2]; read-out: MIC5.2KO) [µM] | MIC (M tb H37Rv [3]; read-out: MIC5.2WT) [µM] | MIC ([4]; read-out: MIC6.7KO) [µM] | MIC (M tb H37Rv [1]; [5]) [µM] | MIC [2, 7] [µM] | MIC (M tb H37Rv [3]; [8]) [µM] | MIC [4, 9] [µM] | other results |
| --- | --- | --- | --- | --- | --- | --- | --- | --- | --- | --- |
| NNC(=O)c1ccncc1 [Isoniazid (INH), Isoniazid] | – | – | – | – | – | – | – | – | – | change in internal pH of Mtb (Mtb H37Rv-PH-GFP): does not have any effect on internal pH |
| F[B-](F)(F)c1cncc(Cl)c1.[K+] [Compound 5-2, [(5-chloro-3-pyridyl)-trifluoro-boranyl] potassium(1+)] | 100 | < 4.00 | 50 | 50 | 100 | – | – | – | – | – |
| N#Cc1cncc([B-](F)(F)F)c1 [Compound 11-2, potassium (5-cyanopyridin-3-yl)trifluoroborate] | – | – | – | – | – | > 200 | 100 | 100 | > 200 | pIC50 (Vero cells; [6]): < 4.00 |
| COc1cncc([B-](F)(F)F)n1.[K+] [Compound 2-5, [trifluoro-(6-methoxypyrazin-2-yl)-boranyl]potassium(1+)] | >200 | < 4.00 | 25 | 50 | >200 | – | – | – | – | – |
| F[B-](F)(F)c1cncc(C(F)(F)F)c1 [Compound 12-3, [trifluoro-[5-(trifluoromethyl)-3-pyridyl]-boranyl]potassium(1+)] | – | – | – | – | – | > 200 | 100 | 100 | > 200 | pIC50 (Vero cells; [10]): < 4.00 |
| NC(=O)c1cnccn1 [Pyrazinamide (PZA), Pyrazinamide, reference compound] | – | – | – | – | – | > 400 | > 400 | 100 (≈ 12.3 µg/mL) | > 400 | MIC (M tb H37Rv [1]; Mycobacterium tuberculosis, H37RV, read-out: MIC6.7WT): > 400 µM; MIC (M tb H37Rv [1]; Mycobacterium tuberculosis, H37RV, read-out: MIC at pH 6.7): > 400 µM; pIC50 (Vero cells; [10]): < 4.00; pIC50 (Vero cells; Table 2, Vero cells, 72 hours): < 4.00; MIC ([2]; Mycobacterium tuberculosis, read-out: MIC5.2KO): > 400 µM; activity against pncA KO strain of Mtb ([2]; result in words): not active against an Mtb strain whose pncA is knocked out; change in internal pH of Mtb (Mtb H37Rv-PH-GFP): lowering internal pH of Mtb; minimum inhibitory concentration against Mtb (Mtb): > 200 µM; MIC (M tb H37Rv [3]; Mycobacterium tuberculosis, H37RV, read-out: MIC5.2WT): 100 µM (≈ 12.3 µg/mL); MIC (M tb H37Rv [3]; Mycobacterium tuberculosis, H37RV, read-out: MIC against Mtb at pH 5.2): 100 to 200 µM (≈ 12.3 to 24.6 µg/mL); MIC ([4]; Mycobacterium tuberculosis, read-out: MIC6.7KO): > 400 µM |
| FB(F)c1cncc(N2CCCC2)n1 [Compound 7-5, potassium; difluoro-(6-pyrrolidin-1-ylpyrazin-2-yl)borane; fluoride] | – | – | – | – | – | > 200 | 50 | 100 | > 200 | pIC50 (Vero cells; [6]): < 4.00 |
| Fc1cncc([B-](F)(F)F)c1.[K+] [Compound 4-2, [trifluoro-(5-fluoro-3-pyridyl)-boranyl] potassium(1+)] | 200 | < 4.00 | 25 | 50 | 100 | – | – | – | – | – |
